Reference: patent publication US12208093B2 (THE JOHNS HOPKINS UNIVERSITY, priority 2016, dated 2025)

Columns and labels:
[1] = test system: pp28-luciferase HCMV Towne; assay: microbe, parasite or virus in culture; assay type: cell-based, human cytomegalovirus (HCMV); details: HFFs 0.5-2 million cells/plate; emetine 75 nM, GCV 5 μM
Text: A GCV-resistant pp28-luciferase HCMV strain, with a C607Y mutation in UL97 was also used. The recombinant viruses express luciferase under the control of the late CMV gene promoter, pp28. […] The recombinant viruses provide a highly-sensitive and reproducible reporter system which correlates with the classic plaque reduction assay. […] Human herpes virus strains were: luciferase HSV1-KOS/Dlux/oriS and clinical isolates of HSV2.
Cell culture, virus infection and anti-viral assays. […] Infection with HCMV or HSV was performed in HFFs, and infection with mouse CMV was performed in MEFs. For HCMV, cells were seeded in either a 96-well plate or 100 mm culture plates (Corning Costar, Sigma Aldrich) at 0.5 or 2 million cells/plate. Following 90 minute adsorption, media was removed and cells were washed with PBS. Media containing 4% FBS and compounds were added to each well. Infected treated HFFs were collected at 72 hpi and lysates were assayed for luciferase activity using a luciferase assay kit (Promega, Madison, WI) on GloMax®-Multi+Detection System (Promega). In second cycle assays, supernatants were collected from all conditions of the first cycle at 96 hpi and used for infection of fresh HFFs in 96-well-plates. […] For HSV1-KOS/Dlux/oriS, a luciferase assay was performed at 24 hpi. Plaque assays were performed with clinical isolates of HSV2 and HCMV Towne. […] Following virus adsorption (60 min and 90 min for HSV and HCMV, respectively), virus was aspirated, and DMEM containing 4% fetal bovine serum (FBS) with (for HSV) or without (for HCMV) 0.5% carboxymethyl-cellulose, were added with the compounds at indicated concentrations into triplicate wells. After incubation at 37° C. for 10 days (for HCMV) or 2 days (for HSV), the overlay was removed and plaques were counted after crystal violet staining.

HCMV entry = assay: Virus entry immunofluorescence assay for pp65; assay type: cell-based; details: emetine 75 nM, GCV 10 μM, CpG 2006 10 μM; added 24 h prior to infection
Protocol: Immunofluorescence. […] Compounds were diluted in serum-free medium and added to HFFs seeded on chamber slides 24 h prior to infection. After infection and treatment, cells were fixed, permeabilized, and air-dried. Cells were then incubated with mouse monoclonal anti-pp65 antibody at 37° C. in humidified chambers for 1 h, washed three times with 0.1% Tween 20 in PBS (PBST), incubated with rhodamine conjugated anti-mouse IgG (Sigma Chemical Co) at 37° C. in humidified chambers for 1 h, and washed with PBST (0.1% Tween 20). A drop of mount oil containing DAPI (4,6-diamidino-2-phenylindole) (Santa Cruz) was added to the slides before visualization with a Nikon Eclipse E-800 fluorescence microscope.

HCMV = assay: Generation of drug resistant virus; assay type: cell-based, human cytomegalovirus (HCMV); details: 5 passages, two fold increases of concentration
Protocol: Generation of drug resistant virus. Screening of drug resistant virus was performed as reported. Two million cells were plated on a 6-well plate and infected with HCMV (MOI 0.05). […] The cells were maintained in DMEM with 4% FBS until plaques were observed. The supernatants from these plates were used to infect fresh HFFs in a 6-well plate and each time drug concentration was increased by two fold. […] DNA extracted from supernatants collected at the last stage was used for UL97 sequencing.

MDM2-IE2 interaction = assay: Co-immunoprecipitation of MDM2 and IE2 in transfected HEK293 cells; assay type: cell-based; details: HEK293 cells transfected with IE1/2; emetine 75 nM or GCV 5 μM, 4 h
Protocol: Transient transfections. HEK-293 cells seeded into 10 cm petri dishes were transfected with HCMV plasmid encoding IE1 and IE2 (pRL45) plasmid, 1 μg/dish, using Lipofectamine 2000 in serum free medium. After 6 h, 10% FBS containing media was added along with 10 μM of MG132. […] Cells were then harvested to prepare lysates for IP.
Co-immunoprecipitation (IP) and immunoblotting. Non-infected, infected or emetine-treated HFFs were treated with MG132 (10 μM) for 12 h. Cells were harvested after 24 hpi and lysed with IP buffer containing 150 mM NaCl, 50 mM Tris pH 7.5, 2 mM EDTA, 0.5% TritonX-100 and 0.5% NP-40-40. 1 mg of lysate was precleared with bead slurry for 30 min. The precleared lysates were incubated with anti-MDM2 (2 μg) antibody overnight. The antibody complexes were isolated using protein A/G beads (Santa Cruz), washed three times with 50% IP buffer. The immunoprecipitate—protein A/G beads were boiled in SDS sample buffer, and the supernatant was analyzed on SDS-PAGE gels after immunoblotting as described previously. […] Reverse IPs were performed by pulling down the precleared lysates with either anti-p53 antibody or anti-RPS14 antibody and detected with MDM2. […] In other experiments, transfected or treated HEK293 cell lysates were pulled-down with anti-IE2 antibody and detected with anti-MDM2 antibody and vice-versa for reverse IP.

Structure (SMILES): Nc1nc(O)c2ncn(COC(CO)CO)c2n1 [GCV, Ganciclovir]
- HCMV inhibition in relation to cell density at time of infection [1]: inhibited HCMV replication irrespective of cell density
- inhibition of viral entry (HCMV entry): neither emetine nor GCV inhibited viral entry
- selection of resistant virus with increasing drug concentration (HCMV): did select for resistant mutants
- interaction of MDM2 and IE2 (MDM2-IE2 interaction): no effect
